Data taken from PubChem BioAssay (NCI).
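Growth conditions: 96-well plates. Treatment: test compound, 48 hours, 5 concentrations. Analysis: linear interpolation between bracketing concentrations; unreached endpoints set to highest concentration. At the TGI there is no net growth.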

Tests used:
Assay in all cases: inhibition of tumour cell growth, NCI panel, 48 h
SK-OV-3 ovarian = test system: SK-OV-3 ovarian
SF-295 CNS = test system: SF-295 CNS
ACHN renal = test system: ACHN renal
NCI-H460 lung = test system: NCI-H460 lung
MCF7 breast = test system: MCF7 breast
UO-31 renal = test system: UO-31 renal
MDA-MB-435 = test system: MDA-MB-435
SK-MEL-5 melanoma = test system: SK-MEL-5 melanoma
HL-60(TB) leukemia = test system: HL-60(TB) leukemia
DU-145 prostate = test system: DU-145 prostate
LOX IMVI melanoma = test system: LOX IMVI melanoma
MDA-MB-231 breast = test system: MDA-MB-231 breast
MOLT-4 leukemia = test system: MOLT-4 leukemia
NCI-H23 lung = test system: NCI-H23 lung
SF-539 CNS = test system: SF-539 CNS
OVCAR-4 ovarian = test system: OVCAR-4 ovarian
MALME-3M melanoma = test system: MALME-3M melanoma
SNB-75 CNS = test system: SNB-75 CNS

Row | Structure (SMILES) | TGI (SK-OV-3 ovarian) [µM] | TGI (SF-295 CNS) [µM] | TGI (ACHN renal) [µM] | TGI (NCI-H460 lung) [µM] | TGI (MCF7 breast) [µM] | TGI (UO-31 renal) [µM] | TGI (MDA-MB-435) [µM] | TGI (SK-MEL-5 melanoma) [µM] | TGI (HL-60(TB) leukemia) [µM] | TGI (DU-145 prostate) [µM] | TGI (LOX IMVI melanoma) [µM] | TGI (MDA-MB-231 breast) [µM] | TGI (MOLT-4 leukemia) [µM] | TGI (NCI-H23 lung) [µM] | TGI (SF-539 CNS) [µM] | TGI (OVCAR-4 ovarian) [µM] | TGI (MALME-3M melanoma) [µM] | TGI (SNB-75 CNS) [µM]
1 | CCOC(=O)C1C(=O)C=C(c2cc(C)ccc2O)CC1c1cccc(Br)c1 (configuration not stated) | 43.1 | 35.5 | 42.2 | 50.6 | 87.1 | 56.6 | 8.81 | 28.5 | 44.2 | > 100 | 32.1 | 48.4 | 43.7 | 46.5 | 35.2 | 5.17 | 42.4 | 
2 | CC1(C)CC(=O)C2=C(C1)OC1=C(CC(C)(C)CC1=O)C2c1ccccc1Cl (configuration not stated) | > 100 | > 100 | > 100 | > 100 |  | 3.67 | > 100 | > 100 | > 100 | > 100 | > 100 | > 100 | > 100 | > 100 | > 100 | > 100 | > 100 | > 100
3 | Cc1ccc(-n2cc(-c3ccc(Cl)cc3)c3c(NNC(=S)NCc4ccccc4)ncnc32)cc1 | 82 | 55.4 | > 100 | 12.4 |  | 24.2 | 76.1 | 19.5 | > 100 | > 100 | 22.8 | 59.5 | > 100 | 60.4 | 30.7 | > 100 | > 100 | 
4 | CC(C)(C)OC(=O)N1CC(COS(C)(=O)=O)c2ccc(O)cc21 (configuration not stated) | 8.88 | 10.8 | 3.12 | 5.45 | 7.49 | 5.26 | 3.21 | 2.92 | 3.98 | 3.53 |  | 8.41 | 3.92 | 3.05 | 3.84 | 3.13 | 2.86 | 3.05
5 | OB1OCc2ccccc21 | 47.1 | 40.9 |  | > 100 | 82.1 | > 100 | > 100 | > 100 | > 100 | > 100 | > 100 | > 100 | > 100 | > 100 | 64.4 | 92.8 | > 100 | 
6 | Clc1ccc(CCn2ccc3ccccc32)c(Cl)c1 | > 100 | > 100 | > 100 | > 100 | > 100 | > 100 | > 100 | > 100 | > 100 | > 100 |  | > 100 | > 100 | > 100 | > 100 | > 100 | > 100 | > 100
7 | O=C(O)CCCCCNC(=O)CCC(CN(CC(=O)OCc1ccccc1)CC(=O)OCc1ccccc1)N(CC(=O)OCc1ccccc1)CC(=O)OCc1ccccc1 (configuration not stated) | 26.1 | 32.2 | 32 | 55.7 | 36.2 | 29.3 | 35.4 | 32.2 | 32.8 | 33.7 | 38.3 | 38.6 | 37.2 | 35 | 37.9 | 32.5 | 39.5 | 
8 | N#Cc1ccc(/C=C2\Cc3ccccc3C2=O)cc1 | > 100 | > 100 | > 100 | > 100 | > 100 | > 100 | > 100 | > 100 | > 100 | > 100 |  | > 100 | > 100 | > 100 | > 100 | > 100 |  | > 100
9 | Cc1cc(C)n(CN(Cn2nc(C)cc2C)c2ccc(N(Cn3nc(C)cc3C)Cn3nc(C)cc3C)cc2)n1 | 75.2 | 83.8 | 38.2 | 63.8 | 44.4 | 95.2 | 35.9 | 30.9 | > 100 | 58.3 |  | 88.1 | > 100 | 58.6 | 35.3 | 43 | 41.8 | 
10 | COC(=O)C(I(OS(=O)(=O)c1ccc(C)cc1)c1ccccc1)=P(c1ccccc1)(c1ccccc1)c1ccccc1 | 52.4 | 87 | 32.6 | > 100 | 94.5 | 54.8 | 36.5 | 26.1 | 45.5 | 32.4 |  | 75.6 | 84.4 | 34.1 | 34.9 | 27 | 21.6 | 
11 | COc1cc(NS(C)(=O)=O)ccc1N1Cc2cnc3ccc4[nH]ccc1c4c23 |  | > 100 | > 100 | 43.8 | > 100 | > 100 | > 100 | 75.8 | > 100 | > 100 | 41.6 | 92.4 | 62.5 | > 100 |  | > 100 |  | 
12 | COc1cccc2c(NNc3ccc(Cl)cc3)c3ccc([N+](=O)[O-])cc3nc12 | 32.5 | 36.1 | 22.4 | 17.2 | > 100 | 37.9 | > 100 | 80.4 | 28.8 | 53.5 | 36.1 | 27.5 | 11.5 | 33.4 | 33 | 30.9 | 22 | 
13 | Cc1c2cccc-2c(N(C)C)cc2c1[nH]c1ccccc12 | 15.1 | 25.3 | 12.4 | 32.2 | 24.1 | 7.93 | 22.5 | 18.5 | 5.74 | 28.7 | 15.3 | 23.8 | 16.9 | 32.3 | 4.31 |  | 10.9 | 
14 | O=C1c2ccccc2C(=O)c2c1c1cc(O)ccc1n2Cc1ccc(Cl)cc1Cl | 13.8 | 20.1 |  | 11.8 | 16.5 | 37.9 | 27.8 | 47.4 | > 100 | > 100 | 11.4 | 17.5 | 43.4 | 19.9 | 14.7 | 4.27 | 63.9 | 
15 | CC1=CC(=O)C[C@]2(C)[C@@H](O)CC(C(C)CO)C[C@@H]12 (some centres not stated) | > 100 | > 100 | > 100 | > 100 | > 100 | > 100 | > 100 | > 100 | > 100 | > 100 | > 100 | > 100 | > 100 | > 100 | > 100 | > 100 |  | > 100
16 | Clc1ccc(CCN2CCN(CCCc3ccccc3)CC2)cc1Cl | 35.1 | 30 | 39.4 | 33.5 | 33.8 | 24.7 | 31.1 | 29.9 | 44.7 | 30.4 | 31.5 | 30.8 | > 100 | 31.6 | 32.4 | 31.4 | 33.8 | 
17 | COc1ccc2[nH]c3c(C)c4ccnc(NCCCN(C)CCCNC(=O)NCCCN(C)CCCNc5nccc6c(C)c7[nH]c8ccc(OC)cc8c7c(C)c56)c4c(C)c3c2c1 | > 18.4 |  | 2.8 | 1.34 |  | > 16.9 | 1.24 |  | 1.2 | > 10.9 |  | > 50 | > 12.4 | > 19 | 1.18 | 7.83 |  | 1.56
18 | c1ccc(C2(c3cc4ccccc4[nH]3)OCCO2)cc1 | > 100 | > 100 | > 100 | > 100 | > 100 | > 100 | > 100 | 57 |  | > 100 | > 100 | > 100 | 49.4 | > 100 | > 100 | > 100 |  | > 100
19 | CC(C)(Oc1ccc(C2C[C@H]2Cl)cc1)C(=O)O (some centres not stated) | > 100 | > 100 |  | > 100 | > 100 |  | > 100 | > 100 | > 100 | > 100 | > 100 | > 100 | > 100 |  | > 100 | > 100 |  | > 100
20 | CCCCCCCCCCCCCCCCCc1nc(C#N)c(N)o1 | > 100 |  | > 100 |  | > 100 |  | > 100 | > 100 | 69.6 | > 100 | > 100 | 96.5 | > 100 |  |  |  |  | 70.2
21 | Cc1ccc(-c2c(C#N)c(O)n(NS(=O)(=O)c3ccccc3)c(=O)c2C#N)cc1 | > 100 | > 100 | > 100 | > 100 | > 100 |  | > 100 | > 100 | > 100 |  | > 100 | > 100 | > 100 |  | > 100 | > 100 | > 100 | > 100
22 | COc1ccc(/C=N/NC(=O)c2ccccc2Nc2ccccc2C(=O)N/N=C/c2ccc(OC)c(OC)c2)cc1OC | > 100 | > 100 | > 100 | > 100 | > 100 | > 100 | > 100 | > 100 | > 100 | > 100 |  | 89.1 | > 100 | > 100 |  | > 100 | > 100 | > 100
